Laboratory results taken from patent US10810329B2, “In silico design of peptides equilibrated in a lipid bilayer with partition free energies indicating probability of antimicrobial activity” (priority 2015, dated 2020).
Values after ≈ are worked out from the molar mass of the structure shown. Peptide text beside a SMILES is read from it.

Tests used:
[1] = tested on: Escherichia coli strain (ATCC 25922); format: cell-based
Protocol: (§1) Minimal inhibitory concentration (MIC) represents for the lowest concentration of peptide at which the AMP can still kill 90% of the bacteria. All MIC tests for WLK peptide series SEQ ID NO:1-13 were measured against Escherichia coli strain (ATCC 25922) in triplicate. Peptide concentration was determined by UV spectrophotometer (Ultrospec 1100 pro from Amersham Biosciences) at 280 nm with proper extinction coefficient. (Gill S. C. & Von Hippel P. H., Analytical biochemistry 1989, 182(2), 319-326). All of the samples were prepared from a stock solution containing peptides of concentrations 5, 2.5, 1.25, 0.625, 0.313, 0.156 and 0.078 mg/ml. Bacteria culture in the middle of logarithmic growth at a concentration of 5×10^5 colony-formation unit (CFU) and protein solution at the aforementioned concentrations were uniformly mixed in a 96-well culture plate (each well contains 1 microliter protein solution and 99 microliter of bacteria culture). After growing the culture at 37° C. for 16 hours, how bacterial growth was inhibited was measured by Thermo Max (Molecular Devices) at the wavelength of 600 nm. The MIC values were determined by triplicates of the above experiments.

E. coli ATCC 25922 = format: cell-based, Escherichia coli; conditions: for Antimicrobial activity (MIC) Experimental values: ATCC 25922; for MIC in MH medium: ATCC 25922, 16 h
Protocol: as §1, with “MIC: Minimal Inhibitory Concentration of AMPs in MH Medium Against E. coli ATCC 25922 Minimal” for “Minimal”

Row | SMILES | MIC in LYM medium, NaCl 50 [1] [µg/mL] | MIC in LYM medium, NaCl 100 [1] [µg/mL] | MIC in LYM medium, NaCl 200 [1] [µg/mL] | MIC in LYM medium, NaCl 300 [1] [µg/mL] | MIC in LYM medium, control [1] [µg/mL] | Antimicrobial activity (MIC) Experimental values (E. coli ATCC 25922) [µg/mL] | MIC in MH medium (E. coli ATCC 25922) [µg/mL]
1 | CC(C)C[C@H](NC(=O)[C@H](Cc1c[nH]c2ccccc12)NC(=O)[C@H](CCCCN)NC(=O)[C@H](CC(C)C)NC(=O)[C@H](Cc1c[nH]c2ccccc12)NC(=O)[C@H](CCCCN)NC(=O)[C@H](CC(C)C)NC(=O)[C@H](Cc1c[nH]c2ccccc12)NC(=O)[C@H](CCCCN)NC(=O)[C@@H](N)CCCCN)C(=O)N[C@@H](CCCCN)C(=O)N[C@@H](CCCCN)C(=O)N[C@@H](CCCCN)C(=O)O [SEQ ID NO. 1, KKWLKWLKWLKKK, reference compound] (H-KKWLKWLKWLKKK-OH; N-terminus and C-terminus assumed) | 1.56 (≈ 0.86 µM) | 3.13 (≈ 1.73 µM) | 6.25 (≈ 3.45 µM) | 6.25 (≈ 3.45 µM) | 1.56 (≈ 0.86 µM) | 3.13 | 3.13 (≈ 1.73 µM)
2 | CC(C)C[C@H](NC(=O)[C@H](Cc1c[nH]c2ccccc12)NC(=O)[C@H](CCCCN)NC(=O)[C@H](CC(C)C)NC(=O)[C@H](Cc1c[nH]c2ccccc12)NC(=O)[C@H](CCCCN)NC(=O)[C@H](CC(C)C)NC(=O)[C@H](Cc1c[nH]c2ccccc12)NC(=O)[C@@H](N)CCCCN)C(=O)N[C@@H](CCCCN)C(=O)N[C@@H](CCCCN)C(=O)N[C@@H](CCCCN)C(=O)N[C@@H](CCCCN)C(=O)O [SEQ ID NO. 2, KWLKWLKWLKKKK] (H-KWLKWLKWLKKKK-OH; N-terminus and C-terminus assumed) | 1.56 (≈ 0.86 µM) | 6.25 (≈ 3.45 µM) | 12.5 (≈ 6.89 µM) | 12.5 (≈ 6.89 µM) | 1.56 (≈ 0.86 µM) | 6.25 | 6.25 (≈ 3.45 µM)
3 | CC(C)C[C@H](NC(=O)[C@H](Cc1c[nH]c2ccccc12)NC(=O)[C@H](CCCCN)NC(=O)[C@H](CC(C)C)NC(=O)[C@H](Cc1c[nH]c2ccccc12)NC(=O)[C@H](CCCCN)NC(=O)[C@H](CC(C)C)NC(=O)[C@@H](N)Cc1c[nH]c2ccccc12)C(=O)N[C@@H](CCCCN)C(=O)N[C@@H](CCCCN)C(=O)N[C@@H](CCCCN)C(=O)N[C@@H](CCCCN)C(=O)N[C@@H](CCCCN)C(=O)O [SEQ ID NO. 3, WLKWLKWLKKKKK] (H-WLKWLKWLKKKKK-OH; N-terminus and C-terminus assumed) | 3.13 (≈ 1.73 µM) | 3.13 (≈ 1.73 µM) | 12.5 (≈ 6.89 µM) | 25 (≈ 13.8 µM) | 1.56 (≈ 0.86 µM) | 6.25 | 6.25 (≈ 3.45 µM)
4 | CC(C)C[C@H](NC(=O)[C@H](Cc1c[nH]c2ccccc12)NC(=O)[C@H](CCCCN)NC(=O)[C@H](CC(C)C)NC(=O)[C@H](Cc1c[nH]c2ccccc12)NC(=O)[C@H](CCCCN)NC(=O)[C@@H](N)CC(C)C)C(=O)N[C@@H](CCCCN)C(=O)N[C@@H](CCCCN)C(=O)N[C@@H](CCCCN)C(=O)N[C@@H](CCCCN)C(=O)N[C@@H](CCCCN)C(=O)N[C@@H](Cc1c[nH]c2ccccc12)C(=O)O [SEQ ID NO. 4, LKWLKWLKKKKKW] (H-LKWLKWLKKKKKW-OH; N-terminus and C-terminus assumed) | 3.13 (≈ 1.73 µM) | 3.13 (≈ 1.73 µM) | 12.5 (≈ 6.89 µM) | 50 (≈ 27.6 µM) | 1.56 (≈ 0.86 µM) | 12.5 | 12.5 (≈ 6.89 µM)
5 | CC(C)C[C@H](NC(=O)[C@H](Cc1c[nH]c2ccccc12)NC(=O)[C@H](CCCCN)NC(=O)[C@H](CCCCN)NC(=O)[C@H](CCCCN)NC(=O)[C@H](CCCCN)NC(=O)[C@H](CCCCN)NC(=O)[C@H](CC(C)C)NC(=O)[C@H](Cc1c[nH]c2ccccc12)NC(=O)[C@H](CCCCN)NC(=O)[C@H](CC(C)C)NC(=O)[C@H](Cc1c[nH]c2ccccc12)NC(=O)[C@@H](N)CCCCN)C(=O)O [SEQ ID NO. 5, KWLKWLKKKKKWL] (H-KWLKWLKKKKKWL-OH; N-terminus and C-terminus assumed) | 3.13 (≈ 1.73 µM) | 12.5 (≈ 6.89 µM) | 25 (≈ 13.8 µM) | 50 (≈ 27.6 µM) | 3.13 (≈ 1.73 µM) | 12.5 | 12.5 (≈ 6.89 µM)
6 | CC(C)C[C@H](NC(=O)[C@H](Cc1c[nH]c2ccccc12)NC(=O)[C@H](CCCCN)NC(=O)[C@H](CCCCN)NC(=O)[C@H](CCCCN)NC(=O)[C@H](CCCCN)NC(=O)[C@H](CCCCN)NC(=O)[C@H](CC(C)C)NC(=O)[C@H](Cc1c[nH]c2ccccc12)NC(=O)[C@H](CCCCN)NC(=O)[C@H](CC(C)C)NC(=O)[C@@H](N)Cc1c[nH]c2ccccc12)C(=O)N[C@@H](CCCCN)C(=O)O [SEQ ID NO. 6, WLKWLKKKKKWLK] (H-WLKWLKKKKKWLK-OH; N-terminus and C-terminus assumed) | 3.13 (≈ 1.73 µM) | 6.25 (≈ 3.45 µM) | 12.5 (≈ 6.89 µM) | 25 (≈ 13.8 µM) | 1.56 (≈ 0.86 µM) | 6.25 | 6.25 (≈ 3.45 µM)
7 | CC(C)C[C@H](NC(=O)[C@H](Cc1c[nH]c2ccccc12)NC(=O)[C@H](CCCCN)NC(=O)[C@H](CCCCN)NC(=O)[C@H](CCCCN)NC(=O)[C@H](CCCCN)NC(=O)[C@H](CCCCN)NC(=O)[C@H](CC(C)C)NC(=O)[C@H](Cc1c[nH]c2ccccc12)NC(=O)[C@H](CCCCN)NC(=O)[C@@H](N)CC(C)C)C(=O)N[C@@H](CCCCN)C(=O)N[C@@H](Cc1c[nH]c2ccccc12)C(=O)O [SEQ ID NO. 7, LKWLKKKKKWLKW] (H-LKWLKKKKKWLKW-OH; N-terminus and C-terminus assumed) | 3.13 (≈ 1.73 µM) | 6.25 (≈ 3.45 µM) | 12.5 (≈ 6.89 µM) | 50 (≈ 27.6 µM) | 3.13 (≈ 1.73 µM) | 12.5 | 12.5 (≈ 6.89 µM)
8 | CC(C)C[C@H](NC(=O)[C@H](Cc1c[nH]c2ccccc12)NC(=O)[C@H](CCCCN)NC(=O)[C@H](CC(C)C)NC(=O)[C@H](Cc1c[nH]c2ccccc12)NC(=O)[C@H](CCCCN)NC(=O)[C@H](CCCCN)NC(=O)[C@H](CCCCN)NC(=O)[C@H](CCCCN)NC(=O)[C@H](CCCCN)NC(=O)[C@H](CC(C)C)NC(=O)[C@H](Cc1c[nH]c2ccccc12)NC(=O)[C@@H](N)CCCCN)C(=O)O [SEQ ID NO. 8, KWLKKKKKWLKWL] (H-KWLKKKKKWLKWL-OH; N-terminus and C-terminus assumed) | 3.13 (≈ 1.73 µM) | 3.13 (≈ 1.73 µM) | 6.25 (≈ 3.45 µM) | 12.5 (≈ 6.89 µM) | 3.13 (≈ 1.73 µM) | 6.25 | 6.25 (≈ 3.45 µM)
9 | CC(C)C[C@H](NC(=O)[C@H](Cc1c[nH]c2ccccc12)NC(=O)[C@H](CCCCN)NC(=O)[C@H](CC(C)C)NC(=O)[C@H](Cc1c[nH]c2ccccc12)NC(=O)[C@H](CCCCN)NC(=O)[C@H](CCCCN)NC(=O)[C@H](CCCCN)NC(=O)[C@H](CCCCN)NC(=O)[C@H](CCCCN)NC(=O)[C@H](CC(C)C)NC(=O)[C@@H](N)Cc1c[nH]c2ccccc12)C(=O)N[C@@H](CCCCN)C(=O)O [SEQ ID NO. 9, WLKKKKKWLKWLK] (H-WLKKKKKWLKWLK-OH; N-terminus and C-terminus assumed) | 3.13 (≈ 1.73 µM) | 3.13 (≈ 1.73 µM) | 12.5 (≈ 6.89 µM) | 50 (≈ 27.6 µM) | 3.13 (≈ 1.73 µM) | 6.25 | 6.25 (≈ 3.45 µM)
10 | CC(C)C[C@H](NC(=O)[C@H](Cc1c[nH]c2ccccc12)NC(=O)[C@H](CCCCN)NC(=O)[C@H](CC(C)C)NC(=O)[C@H](Cc1c[nH]c2ccccc12)NC(=O)[C@H](CCCCN)NC(=O)[C@H](CCCCN)NC(=O)[C@H](CCCCN)NC(=O)[C@H](CCCCN)NC(=O)[C@H](CCCCN)NC(=O)[C@@H](N)CC(C)C)C(=O)N[C@@H](CCCCN)C(=O)N[C@@H](Cc1c[nH]c2ccccc12)C(=O)O [SEQ ID NO. 10, LKKKKKWLKWLKW] (H-LKKKKKWLKWLKW-OH; N-terminus and C-terminus assumed) | 3.13 (≈ 1.73 µM) | 3.13 (≈ 1.73 µM) | 6.25 (≈ 3.45 µM) | 25 (≈ 13.8 µM) | 3.13 (≈ 1.73 µM) | 6.25 | 6.25 (≈ 3.45 µM)
